# Source: the supplement of paper PMC12137928
# Structures can show the parent of a compound that is named as a salt.
# Key:
# HCT116 [1] = assay: efficacy (maximum % inhibition of viability vs DMSO); higher = more cytotoxic; conditions: 72 h
# Procedure, shortened: (§1)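 Luminescence was read with CellTiter-Glo in HCT116 cells seeded at 250 per well in 1536-well plates. Signals were scaled between vehicle at 0% and positive control at -100%, then pattern-corrected. IC50 and maximal efficacy were obtained by fitting a four-parameter Hill equation.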
# HCT116 [2] = conditions: 72 h
# Procedure, shortened: as §1
IC50 cell viability (HCT116 [2]; ICRF193 0 nM) [µM],IC50 cell viability (HCT116 [2]; ICRF193 200 nM) [µM],SMILES,efficacy (HCT116 [1]; ICRF193 0 nM) [%],efficacy (HCT116 [1]; ICRF193 200 nM) [%]
20.6,20.6,C=C[C@@H]1C[C@]1(NC(=O)[C@@H]1C[C@@H](Oc2ncc(OC)c3ccc(Cl)cc23)CN1C(=O)[C@@H](NC(=O)OC(C)(C)C)C(C)(C)C)C(=O)NS(=O)(=O)C1CC1,92.8,92.4
20.6,23.1,CCCCC[C@H](O)C=C[C@H]1[C@@H](O)CC(=O)[C@@H]1CCCCCCC(=O)O,73.2,73.8
25.9,20.6,C[C@@H]1CCO[C@H]2Cn3cc(C(=O)NCc4ccc(F)cc4F)c(=O)c(O)c3C(=O)N12,82.5,106
18.3,29.1,C#C[C@]1(OC(C)=O)CC[C@H]2[C@@H]3CCC4=CC(=NO)CC[C@@H]4[C@H]3CC[C@@]21CC (mixture of isomers) [Norgestimate],84,102
29.1,18.3,CNCCC(Oc1ccc(C(F)(F)F)cc1)c1ccccc1 (racemic) [(+/-) -Fluoxetine],106,102
29.1,20.6,O[C@@H](CNC[C@H](O)[C@H]1CCc2cc(F)ccc2O1)[C@@H]1CCc2cc(F)ccc2O1 (racemic) [rac Nebivolol hydrochloride],121,98.2
8.2,8.2,Nc1ncn([C@@H]2O[C@H](CO)[C@@H](O)[C@H]2O)c(=O)n1 [5-Azacitidine],121,98.6
0.206,0.146,N=c1ccn2c(n1)O[C@H]1[C@H](O)[C@@H](CO)O[C@H]12 [ANCITABINE HYDROCHLORIDE],58.5,56.7
1.64,0.73,C[C@H]1[C@H](OC(=O)CCC(=O)O)O[C@@H]2O[C@@]3(C)CC[C@H]4[C@H](C)CC[C@@H]1[C@@]24OO3 [ARTESUNATE],93.1,86.8
44.7,50.1,CC(=O)Oc1cc(C)c(OC(C)=O)c2ccccc12 [Acetomenaphthone],107,108
23.1,9.2,CC[C@@]1(O)C[C@H](O[C@H]2C[C@H](N(C)C)[C@H](O[C@H]3C[C@H](O)[C@H](O[C@H]4CCC(=O)[C@H](C)O4)[C@H](C)O3)[C@H](C)O2)c2c(cc3c(c2O)C(=O)c2c(O)cccc2C3=O)[C@H]1C(=O)OC [Aclarubicin],122,112
14.6,13,CC(C)(C)C(=O)OCOP(=O)(COCCn1cnc2c(N)ncnc21)OCOC(=O)C(C)(C)C [Adefovir dipivoxil],63.1,79.3
10.3,> 45.8,CCCSc1ccc2[nH]c(NC(=O)OC)nc2c1 [Albendazole],53,
> 45.8,29.1,O=C1c2ccccc2C(=O)c2c1ccc(O)c2O [Alizarin],,47.6
16.4,13,O=S(=O)(O)c1ccc2c(/N=N/c3ccc(S(=O)(=O)O)c4ccccc34)c(O)c(S(=O)(=O)O)cc2c1 [Amaranth],49,47.6
20.6,16.4,CCCCc1oc2ccccc2c1C(=O)c1cc(I)c(OCCN(CC)CC)c(I)c1 [Amiodarone hydrochloride],92.6,93
> 45.8,16.4,CCOC(=O)C1=C(COCCN)NC(C)=C(C(=O)OC)C1c1ccccc1Cl (stereo not drawn) [Amlodipine],,88.3

IC50 cell viability (HCT116 [2]; ICRF193 0 nM) [µM],IC50 cell viability (HCT116 [2]; ICRF193 200 nM) [µM],SMILES,efficacy (HCT116 [1]; ICRF193 0 nM) [%],efficacy (HCT116 [1]; ICRF193 200 nM) [%]
> 45.8,> 45.8,C[C@H](CSC(=O)c1ccccc1)C(=O)N1C[C@@H](Sc2ccccc2)C[C@H]1C(=O)O [Zofenopril],,
> 45.8,> 45.8,O=P(O)(O)C(O)(Cn1ccnc1)P(=O)(O)O [Zoledronic acid monohydrate],,
> 45.8,> 45.8,CN(C)CCc1c[nH]c2ccc(C[C@H]3COC(=O)N3)cc12 [Zolmitriptan],,
> 45.8,> 45.8,CN(C)CCOC1=Cc2ccccc2Sc2ccc(Cl)cc21 [Zotepine],,
> 45.8,> 45.8,OCCN1CCN(CCC=C2c3ccccc3Sc3ccc(Cl)cc32)CC1 [Zuclopenthixol (-)-10-Camphorsulfonic Acid Salt],,
> 45.8,> 45.8,CCCCCCCCCC(=O)OCCN1CCN(CC/C=C2/c3ccccc3Sc3ccc(Cl)cc32)CC1 [Zuclopenthixol Decanoate],,
> 45.8,> 45.8,NC(=O)CCCCC1CCSS1 (stereo not drawn) [alpha-Lipoic acid amide],,
> 45.8,> 45.8,O=C(O)CCCCC1CCSS1 (stereo not drawn) [alpha-Lipoic acid],,
> 45.8,> 45.8,O=P(O)(O)OC(CO)CO [beta-Glycerol phosphate disodium salt pentahydrate],,
> 45.8,> 45.8,N[C@H](Cc1c[nH]c2ccccc12)C(=O)O [d-Tryptophan],,
> 45.8,> 45.8,OC[C@@H]1NC[C@@H](O)[C@H](O)[C@H]1O [deoxynorjrimycin(1)],,
> 45.8,> 45.8,COc1cc(/C=C/C(=O)O[C@H]2CC[C@]34C[C@]35CC[C@]3(C)[C@@H]([C@H](C)CCC=C(C)C)CC[C@@]3(C)[C@@H]5CC[C@H]4C2(C)C)ccc1O [gamma-Oryzanol],,
> 45.8,> 45.8,CC(=O)Oc1cccc(C)c1 [m-Cresyl acetate],,
> 45.8,> 45.8,O[C@H]1[C@H](O)[C@@H](O)[C@H](O)[C@@H](O)[C@H]1O [myo-Inositol],,
> 45.8,> 45.8,"CC1(O)CCC(C(C)(C)O)CC1 (stereo not drawn) [p-Menthane-1,8-diol monohydrate]",,
> 45.8,> 45.8,O=C(O)/C=C(\CC(=O)O)C(=O)O [trans-Aconitic acid],,

# The next lines start with the molecule.
SMILES,IC50 cell viability (HCT116 [2]; ICRF193 0 nM) [µM],IC50 cell viability (HCT116 [2]; ICRF193 200 nM) [µM],efficacy (HCT116 [1]; ICRF193 0 nM) [%],efficacy (HCT116 [1]; ICRF193 200 nM) [%]
C=CC(=O)N1CCC[C@@H](n2nc(-c3ccc(Oc4ccccc4)cc3)c3c(N)ncnc32)C1,23.1,29.1,47.6,72.8
CCCC1CCCCN1 (racemic) [dl-Coniine],> 45.8,4.11,,66.1
CCCCCCCCCCCC[n+]1ccc2ccccc2c1 [2-Dodecylisoquinolinium tosylate],7.3,4.61,101,103
"O=C(Nc1ccc([N+](=O)[O-])cc1)Nc1ccc([N+](=O)[O-])cc1 [4,4'-Dinitrodiphenylurea]",> 45.8,29.1,,55.9
Nc1nc(=S)c2[nH]cnc2[nH]1 [6-Thioguanine],3.66,2.06,97.5,91.8
S=c1nc[nH]c2nc[nH]c12 [6-mercaptopurine],2.59,3.26,91.6,83.2
"Nc1c2ccccc2nc2ccccc12 [9-Aminoacridine, monohydrochloride, monohydrate]",23.1,9.2,103,90.6
C[C@H](Oc1cc(-c2cnn(C3CCNCC3)c2)cnc1N)c1c(Cl)ccc(F)c1Cl [(S)-Crizotinib],20.6,18.3,89.7,91.2
COc1c(-c2ccc3cc(NS(C)(=O)=O)ccc3c2)cc(-n2ccc(=O)[nH]c2=O)cc1C(C)(C)C [ABT-333],20.6,25.9,94.6,102
Cc1cnc(C(=O)N[C@H]2CCCCC/C=C\[C@@H]3C[C@@]3(C(=O)NS(=O)(=O)C3CC3)NC(=O)[C@@H]3C[C@@H](Oc4nc5ccccc5c5ccccc45)CN3C2=O)cn1 [ABT-450],29.1,18.3,110,100
CCN1CCN(Cc2ccc(Nc3ncc(F)c(-c4cc(F)c5nc(C)n(C(C)C)c5c4)n3)nc2)CC1 [Abemaciclib],16.4,18.3,116,112
C[n+]1c2cc(N)ccc2cc2ccc(N)cc21.Nc1ccc2cc3ccc(N)cc3nc2c1 [Acriflavine hydrochloride],16.4,23.1,50.4,56.5
Cc1c2oc3c(C)ccc(C(=O)N[C@@H]4C(=O)N[C@H](C(C)C)C(=O)N5CCC[C@H]5C(=O)N(C)CC(=O)N(C)[C@@H](C(C)C)C(=O)O[C@@H]4C)c3nc-2c(C(=O)N[C@@H]2C(=O)N[C@H](C(C)C)C(=O)N3CCC[C@H]3C(=O)N(C)CC(=O)N(C)[C@@H](C(C)C)C(=O)O[C@@H]2C)c(N)c1=O [Actinomycin D],0.0164,0.0206,48.1,79.3
CN(C)C/C=C/C(=O)Nc1cc2c(Nc3ccc(F)c(Cl)c3)ncnc2cc1O[C@H]1CCOC1 [Afatinib (BIBW2992)],29.1,18.3,110,130
CN(C)CCC=C1c2ccccc2CCc2ccccc21 [Amitriptyline hydrochloride],> 45.8,18.3,,51.6
Cc1c(C(N)=O)cc([N+](=O)[O-])cc1[N+](=O)[O-] [Zoalene],> 45.8,> 45.8,,
Cc1nn(C)c2c1C(c1ccccc1F)=NCC(=O)N2C [Zolazepam Hydrochloride],> 45.8,> 45.8,,
NS(=O)(=O)Cc1noc2ccccc12 [Zonisamide],> 45.8,> 45.8,,
CC1=C2[C@H]3OC(=O)[C@@H](C)[C@@H]3CC[C@@]2(C)C=CC1=O [alpha-Santonin],> 45.8,> 45.8,,
CC1=C(/C=C/C(C)=C/C=C/C(C)=C/C=C/C=C(C)/C=C/C=C(C)/C=C/C2=C(C)CCCC2(C)C)C(C)(C)CCC1 [beta-Carotene],> 45.8,> 45.8,,
C=C(C)[C@H]1CC=C(C)CC1 [d-LIMONENE],> 45.8,> 45.8,,
COc1cccc(C(=O)CCN[C@@H](C)[C@H](O)c2ccccc2)c1 [l-Oxyfedrine hydrochloride],> 45.8,> 45.8,,
Cc1cccc(O)c1 [m-Cresol],> 45.8,> 45.8,,
Cc1ccccc1O [o-Cresol],> 45.8,> 45.8,,
"Clc1ccc(C(c2ccc(Cl)cc2)C(Cl)(Cl)Cl)cc1 [p,p'-DDT]",> 45.8,> 45.8,,
Nc1cc(Cl)c(NC2=NCCN2)c(Cl)c1 [p-Aminoclonidine hydrochloride],> 45.8,> 45.8,,
Cc1ccc(O)cc1 [p-Cresol],> 45.8,> 45.8,,
